The text below walks through data of PubChem BioAssay AID328 (DTP/NCI, 2004).

This test concerns BDF1 mice, P388 leukemia ip, median survival T/C. Briefly: NCI In Vivo Anticancer Drug Screen. Data for tumor model P388 Leukemia (intraperitoneal) in B6D2F1 (BDF1) mice. The note with it: endpoint: median survival time, higher = longer survival. The procedure, abridged: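 Steps: implant the tumour, treat one group with compound and another with vehicle, record survival, then divide treated by control.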

Where [1] appears, read: dose: 12.5 mg/kg/injection, schedule: Q01DX009 (ip), vehicle: water.
The mark [2] stands for this setting: dose: 25.0 mg/kg/injection, schedule: Q01DX009 (ip), vehicle: water.
Setting [3] is: dose: 50.0 mg/kg/injection, schedule: Q01DX009 (ip), vehicle: water.
[4] abbreviates: dose: 50.0 mg/kg/injection, schedule: Q04DX003 (ip), vehicle: water.
[5] abbreviates: dose: 100.0 mg/kg/injection, schedule: Q01DX009 (ip), vehicle: water.
Setting [6] is: dose: 100.0 mg/kg/injection, schedule: Q04DX003 (ip), vehicle: water.
The mark [7] stands for this setting: dose: 200.0 mg/kg/injection, schedule: Q01DX009 (ip), vehicle: water.
[8] abbreviates: dose: 200.0 mg/kg/injection, schedule: Q04DX003 (ip), vehicle: water.
[9] abbreviates: dose: 400.0 mg/kg/injection, schedule: Q01DX009 (ip), vehicle: water.
[10] abbreviates: dose: 25.0 mg/kg/injection, schedule: Q01DX009 (ip), vehicle: Klucel (hydroxypropylcellulose) (HPC).
Where [11] appears, read: dose: 50.0 mg/kg/injection, schedule: Q01DX009 (ip), vehicle: Klucel (hydroxypropylcellulose) (HPC).
Setting [12] is: dose: 50.0 mg/kg/injection, schedule: Q01DX009 (ip), vehicle: saline with Tween-80.
Setting [13] is: dose: 100.0 mg/kg/injection, schedule: Q01DX009 (ip), vehicle: saline with Tween-80.
[14] abbreviates: dose: 200.0 mg/kg/injection, schedule: Q01DX009 (ip), vehicle: saline with Tween-80.
Setting [15] is: dose: 100.0 mg/kg/injection, schedule: Q04DX003 (ip), vehicle: saline with Tween-80.
The mark [16] stands for this setting: dose: 200.0 mg/kg/injection, schedule: Q04DX003 (ip), vehicle: saline with Tween-80.
[17] abbreviates: dose: 400.0 mg/kg/injection, schedule: Q04DX003 (ip), vehicle: saline with Tween-80.
Where [18] appears, read: dose: 100.0 mg/kg/injection, schedule: Q04DX003 (ip), vehicle: saline.
Where [19] appears, read: dose: 200.0 mg/kg/injection, schedule: Q04DX003 (ip), vehicle: saline.
The mark [20] stands for this setting: dose: 400.0 mg/kg/injection, schedule: Q04DX003 (ip), vehicle: saline.

Each structure is given as a SMILES string. “And” between values parts separate entries of the source, which are not always exact repeats. Equal entries are not always repeated. Toxic doses and inconclusive results are not listed.

Turning to `O=C1c2ccccc2C(=O)N1c1cc(OCc2ccccc2)cc(OCc2ccccc2)c1`, the T/C was 99 % of control and 103 % of control (dose: 0.78 mg/kg/injection, schedule: Q01DX009 (ip), vehicle: water); 96 % of control and 101 % of control (dose: 1.56 mg/kg/injection, schedule: Q01DX009 (ip), vehicle: water); 105 % of control and 120 % of control (dose: 3.12 mg/kg/injection, schedule: Q01DX009 (ip), vehicle: water); 96 % of control (dose: 6.25 mg/kg/injection, schedule: Q01DX009 (ip), vehicle: water); 95 % of control and 99 % of control and 112 % of control under setting [1]; 99 % of control and 105 % of control under setting [2]. In addition, the T/C was 89 % of control and 117 % of control under setting [3]; 94 % of control under setting [4]; 96 % of control under setting [5]; 99 % of control under setting [6]; 88 % of control and 115 % of control under setting [7]; 90 % of control under setting [8]. In addition, the T/C is 101 % of control under setting [9] and 99 % of control (dose: 400.0 mg/kg/injection, schedule: Q04DX003 (ip), vehicle: water).
On to `CC(=O)NN(c1ccc([N+](=O)[O-])cc1)c1ccc([N+](=O)[O-])cc1`, for which the T/C was 109 % of control under setting [10]; 109 % of control under setting [11]; 100 % of control (dose: 100.0 mg/kg/injection, schedule: Q01DX009 (ip), vehicle: Klucel (hydroxypropylcellulose) (HPC)).
For `Cc1onc(-c2ccccc2)c1NC(=O)OCc1ccc(-c2cc(C(F)(F)F)cc(C(F)(F)F)c2)o1`, the T/C runs as follows: under setting [12], 97 % of control; under setting [13], 99 % of control; under setting [14], 99 % of control.
`CCOC(=O)C(c1ccccc1)c1ccccc1`: the T/C is 100 % of control (dose: 100.0 mg/kg/injection, schedule: Q04DX003 (ip), vehicle: other); 95 % of control (dose: 200.0 mg/kg/injection, schedule: Q04DX003 (ip), vehicle: other); 90 % of control (dose: 400.0 mg/kg/injection, schedule: Q04DX003 (ip), vehicle: other).
Regarding `N/C(=N\O)c1cccnc1`, the T/C is, setting by setting: under setting [1], 109 % of control; under setting [2], 102 % of control; under setting [3], 102 % of control; under setting [4], 101 % of control and 102 % of control; under setting [5], 102 % of control; under setting [6], 87 % of control and 105 % of control. Also, the T/C was 107 % of control under setting [7]; 100 % of control and 107 % of control under setting [8]; 108 % of control (dose: 300.0 mg/kg/injection, schedule: Q04DX003 (ip), vehicle: water); 107 % of control under setting [9].
Turning to `C=CCOc1ccccc1-c1nnn(C)n1`, the T/C was 95 % of control under setting [15], 97 % of control under setting [16] and 104 % of control under setting [17].
Consider `CC(C)NCc1ccccc1Sc1ccccc1CNC(C)C`, for which the T/C (dose: 100.0 mg/kg/injection, schedule: Q01DX001 (ip), vehicle: saline with Tween-80) was 103 % of control and the T/C (dose: 100.0 mg/kg/injection, schedule: Q04DX002 (ip), vehicle: saline) is 103 % of control.
Consider `CC(C)(COC(=O)c1cc(Br)ccc1Br)NC(=O)c1cc(Br)ccc1Br`, for which the T/C is 91 % of control under setting [12], 97 % of control under setting [13] and 97 % of control under setting [14].
Turning to `CSC(N)=Nc1ccc(C(=O)O)cc1`, the T/C is 100 % of control under setting [15], 104 % of control under setting [16] and 95 % of control under setting [17].
Consider `CC1=C(Cc2ccccc2)C(C)(C)CCC1`, for which the T/C by setting is: under setting [12], 103 % of control; under setting [13], 112 % of control; under setting [14], 121 % of control.
Regarding `CC(=O)OCC(C)OC(C)=O` (centres undefined), the T/C was 91 % of control (dose: 100.0 mg/kg/injection, schedule: Q01DX009 (ip), vehicle: saline); 100 % of control under setting [18]; 112 % of control (dose: 200.0 mg/kg/injection, schedule: Q01DX009 (ip), vehicle: saline); 100 % of control under setting [19]; 96 % of control under setting [20].
With `Nc1cc2c(c[n+](Cc3ccccc3)c3ccccc23)c2ccccc12`, for the setting “dose: 3.13 mg/kg/injection, schedule: Q04DX003 (ip), vehicle: other”, the T/C is 98 % of control.
Take `CCSc1nc2ccc(Nn3nnnc3-c3ccccc3)cc2s1`: the T/C by setting is: (dose: 12.5 mg/kg/injection, schedule: Q01DX009 (ip), vehicle: Klucel (hydroxypropylcellulose) (HPC)) 272 % of control; under setting [10], 98 % of control; under setting [11], 118 % of control.
For the molecule `CC1=C(/C=C/C(C)=C/C=C/C(C)=C/CO)C(C)(C)CCC1`, the T/C under setting [12] was 92 % of control, the T/C under setting [13] was 96 % of control and the T/C under setting [14] was 96 % of control.
In the case of `O=C(CCCCC(=O)N/N=C\c1ccccn1)N/N=C\c1ccccn1`, the T/C is, setting by setting: under setting [18], 104 % of control; under setting [19], 100 % of control; under setting [20], 109 % of control.
Regarding `CCN1CC2(CO)CCC(OC)C34C5CC6C(OC)CC(O)(C5C6OC)C(O)(C(OC)C23)C14` (centres undefined), the T/C under setting [12] was 100 % of control, the T/C under setting [13] was 103 % of control and the T/C under setting [14] was 100 % of control.
For the molecule `N#CC1(Nc2ccccc2)CCCCC1`, the T/C by setting is: (dose: 25.0 mg/kg/injection, schedule: Q01DX009 (ip), vehicle: saline with Tween-80) 115 % of control; (dose: 50.0 mg/kg/injection, schedule: Q04DX003 (ip), vehicle: saline with Tween-80) 109 % of control; under setting [15], 109 % of control.
With `Oc1c(Cl)cc(Cl)cc1/C=N/c1nc(-c2ccc(Cl)cc2)cs1`, the T/C reads like this: (dose: 0.78 mg/kg/injection, schedule: Q01DX009 (ip), vehicle: saline with Tween-80) 100 % of control; (dose: 1.56 mg/kg/injection, schedule: Q01DX009 (ip), vehicle: saline with Tween-80) 96 % of control; (dose: 3.12 mg/kg/injection, schedule: Q01DX009 (ip), vehicle: saline with Tween-80) 105 % of control.
As for `O=C(CN1CCOCC1)Nc1cccc(C(F)(F)F)c1`, the T/C reads like this: under setting [15], 86 % of control; under setting [16], 86 % of control; under setting [17], 109 % of control.
